# Laboratory results taken from patent US5684034A, “1H-indole-3-acetamide sPLA2 inhibitors” (Eli Lilly and Company, priority 1995, dated 1997).
# Read-outs that look alike come from different tables or passages of the source.
# What was measured:
# [1] = biological target: T1, recombinant human secreted phospholipase A2 (Homo sapiens, UniProt P14555); assay: Human secreted phospholipase A2 inhibition test (chromogenic assay, diheptanoyl thio-PC substrate); assay type: biochemical; settings: pH 7.5, 40° C., 30 minutes, 405 nm
# T1 sequence (P14555 21-144): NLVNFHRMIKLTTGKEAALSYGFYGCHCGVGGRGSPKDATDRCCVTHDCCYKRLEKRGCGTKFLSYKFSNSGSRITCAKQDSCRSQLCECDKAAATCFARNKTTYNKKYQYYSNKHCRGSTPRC
# Protocol: The following chromogenic assay procedure was used to identify and evaluate inhibitors of recombinant human secreted phospholipase A2. The assay described herein has been adapted for high volume screening using 96 well microtiter plates.
# A measured volume of racetic dipheptanoyl thio PC supplied in chloroform at a concentration of 100 mg/ml is taken to dryness and redissolved in 10 millimolar TRITON X-100™ nonionic detergent aqueous solution. Reaction Buffer is added to the solution, then DTNB to give the Reaction Mixture.
# The reaction mixture thus obtained contains 1 mM diheptanoly thio-PC substrate, 0.29 mm Triton X-100™ detergent, and 0.12 mm DTMB in a buffered aqueous solution at pH 7.5.
# 1. Add 0.2 ml reaction mixture to all wells;
# 2. Add 10 ul test compound (or solvent blank) to appropriate wells, mix 20 seconds:
# 3. Add 50 nanograms of sPLA2 (10 microliters) to appropriate wells;
# 4. incubate plate at 40° C. for 30 minutes;
# All compounds were tested in triplicate. […] Each sample was titrated in triplicate and result values were averaged for plotting and calculation of IC50 values. […] Each IC50 value was determined three times.
# sPLA2 = biological target: T2, sPLA2 (Homo sapiens, UniProt P14555); assay: Tissue test: sPLA2-induced contraction of guinea pig lung pleural strips; design: species or system guinea pig (male Hartley); settings: % suppression of sPLA2 contraction (sPLA2 10 ug/ml) at compound concentration of 30 uM, read-out: Tissue Test (sPLA2) % Supp (30 uM)
# T2 sequence (P14555 21-144): T1 sequence (P14555 21-144)
# Description: Male Hartley strain guinea pigs (500-700 g) were killed by cervical dislocation and their heart and lungs removed intact and placed in aerated (95% O2 :5% CO2) Krebs buffer. Dorsal pleural strips (4×1×25 mm) were dissected from intact parenchymal segments (8×4×25 mm) cut parallel to the outer edge of the lower lung lobes. Two adjacent pleural strips, obtained from a single lobe and representing a single tissue sample, were tied at either end and independently attached to a metal support rod. One rod was attached to a Grass force-displacement transducer (Model FTO3C, product of Grass Medical Instruments Co., Quincy, Mass., U.S.A.). […] All tissues were placed in 10 ml jacketed tissue baths maintained at 37° C. The tissue baths were continuously aerated and contained a modified Krebs solution of the following composition (millimolar) NaCl, 118.2; KCl, 4.6; CaCl2.2H2 O, 2.5; MgSO4.7H2 O, 1.2; NaHCO3, 24.8; KH2 PO4, 1.0; and dextrose, 10.0. Pleural strips from the opposite lobes of the lung were used for paired experiments. […] The tissues were allowed to equilibrate for 45 min. as the bath fluid was changed periodically.
# Initially tissues were challenged 3 times with KCl (40 mM) to test tissue viability and to obtain a consistent response. After recording the maximal response to KCl, the tissues were washed and allowed to return to baseline before the next challenge. Cumulative concentration-response curves were obtained from pleural strips by increasing the agonist concentration (sPLA2) in the tissue bath by half-log10 increments while the previous concentration remained in contact with the tissues (Ref. 1, supra.) Agonist concentration was increased after reaching the plateau of the contraction elicited by the preceding concentration. One concentration-response curve was obtained from each tissue. To minimize variability between tissues obtained from different animals, contractile responses were expressed as a percentage of the maximal response obtained with the final KCl challenge. When studying the efects of various drugs on the contractile efects of sPLA2, the compounds and their respective vehicles were added to the tissues 30 min. prior to starting the sPLA2 concentration-response curves.
# Data from different experiments were pooled and presented as a percentage of the maximal KCl responses (mean±S.E.). To estimate the drug induced rightward shifts in the concentration response curves, the curves were analyzed simultaneously using statistical nonlinear modeling methods similar to those described by Waud (1976), Equation 26, p. 163, (Ref. 2). The model includes four parameters: the maximum tissue response which was assumed the same for each curve, the ED50 for the control curve, the steepness of the curves, and the pA2, the concentration of antagonist chat requires a two-fold increase in agonist to achieve an equivalent response. The Schild slope was determined to be 1, using statistical nonlinear modeling methods similar to those described by Waud (1976), Equation 27, p. 164 (Ref. 2).
# To estimate the drug-induced suppression of the maximal responses, sPLA2 responses (10 ug/ml) were determined in the absence and presence of drug, and percent suppression was calculated for each pair of tissues.
# [2] = read-out: Inhibition of human secreted PLA2 IC50 ± mean deviation (3-5 tests)
Structure (SMILES),"IC50 [1, 2] [nM]",inhibition at 30 µM (sPLA2) [%],IC50 ([1]; Inhibition of human secreted PLA2 IC50 ± mean deviation (3-5 tests)) [nM]
"COc1ccc2c(c1)c(CC(N)=O)c(C)n2CC1CCCCC1 [Example 4, 1-Cyclohexylmethyl-5-methoxy-2-methyl-1H-indole-3-acetamide]",2050 ± 850,10.5 ± 23.1,
"COc1ccc2c(c1)c(CC(N)=O)c(C)n2Cc1ccccc1 [Example 5, 5-Methoxy-2-methyl-1-(phenylmethyl)-1H-indole-3-acetamide]",840 ± 170,74.9 ± 4.2,
"CCc1c(CC(N)=O)c2cc(OC)ccc2n1Cc1ccccc1 [Example 9, 2-Ethyl-5-methoxy-1-(phenylmethyl)-1H-indole-3-acetamide]",260 ± 110,49.2 ± 9.4,
"COc1ccc2c(c1)c(CC(N)=O)c(SC)n2Cc1ccccc1 [Example 12, 5-Methoxy-2-(methylthio)-1-(phenylmethyl)-1H-indole-3-acetamide]",,30.3 ± 15.2,400 ± 90
"Cc1c(CC(N)=O)c2cc([N+](=O)[O-])ccc2n1Cc1ccccc1 [Example 16, 2-Methyl-5-nitro-1-(phenylmethyl)-1H-indole-3-acetamide]",1840 ± 440,51.7 ± 4.2,
"CCOC(=O)COc1ccc2c(c1)c(CC(N)=O)c(C)n2Cc1ccccc1 [Example 18, 2-[[3-(2-Amino-2-oxoethyl)-2-methyl-1-(phenylmethyl)-1H-indol-5-yl]oxy]acetic acid ethyl ester]",800 ± 50,74.1 ± 4,
"Cc1c(CC(N)=O)c2cc(OCCCCC(=O)O)ccc2n1Cc1ccccc1 [Example 23, 5-[[3-(2-Amino-2-oxoethyl)-2-methyl-1-(phenylmethyl)-1H-indol-5-yl]oxy]pentanoic acid]",920 ± 360,83.3 ± 2.7,
